Holding throughout (type): cell-based
Data set [1] relates to HL60 and K562 cells. Nature of the data set: TPA differentiation of blood cells, miR-182 qRT-PCR. Particulars: TPA-treated blood cells. The method, then: (§1) HL60 cells (0.5×10^6 cells/ml) were differentiated either to neutrophils with 1.3% DMSO for 8 days or to macrophages with 16 nM tetradecanoyl phorbol acetate (TPA) for 3 days; K562 cells (0.5×10^6 cells/ml) to megakaryocytes with 16 nM phorbol myristate acetate (PMA) for 3 days or to erythrocytes with […] for 4 days. HL60 and K562 cells were grown in DMEM or RPMI-1640, respectively, supplemented with 10% (v/v) FBS. MCF-7 cells (10^6 cells/6 cm dish) were differentiated with 100 nM TPA for 3 days in Dulbecco's Modified Eagle Medium (DMEM) with 10% (v/v) fetal bovine serum (FBS) (Cunliffe et al., Cancer Res., 63:7158-66 (2003). The breast cancer lines and human mammary epithelial cells used in experiments shown in FIGS. 6 and 10, were cultured in media according to protocols from the American Type Culture Collection (ATCC®; Manassas, Va.) (www.atcc.org/).
Analysis of the miRNAs of the miR-183 cluster was conducted using qPCR using the TaqMan MicroRNA Assay from Applied Biosystems as per the manufacturer's instructions and normalized to RNU6B snRNA. Analysis of mRNA expression was carried out with qPCR using the SYBR Green master mix (Applied Biosystems, Foster City, Calif.) according to the manufacture's manual and the BioRad iCycler. […]
(In general: In qPCR the cycle at which signal appears reflects the starting amount.)

The test system of data set [2] is MCF7 cells. Nature of the data set: TPA treatment of MCF7 cells, cell cycle analysis. Conditions: breast cancer lines (MCF7), 100 nM TPA. The method, then: as §1
MCF-7 cells were differentiated with 100 nM TPA. At day 0, 1, 2, and 3 cells were collected, fixed with 70% cold ethanol and stored at −20° C. Permeabilized cells were centrifuged, washed once with PBS, and incubated for 30 minutes in propidium iodide (PI)/RNase Staining Buffer (BD Pharmingen, San Diego, Calif.) at 25° C. before flow cytometric analysis.

Data set [3] concerns PARP. Description: PARP activity assay (universal PARP chemiluminescent kit) in MDA-MB231 cells. Conditions: MDA-MB231, increasing concentrations, 100 μM H2O2. Here is the method: MDA-MB231 cells (2×10^6) were plated in 10-cm tissue culture dishes overnight in duplicates. The cells were exposed to the indicated concentrations of 4-Amino-1,8-naphthalimide in phosphate buffered saline (PBS) for 10 minutes on ice followed by 100 μM H2O2 for 20 minutes on ice. The cells were then washed thrice in ice cold PBS for 8-10 minutes and incubated in complete medium with the indicated concentrations of 4-Amino-1,8-naphthalimide at 37° C. The cells were then lysed and PARP activity was measured using the universal PARP chemiluminescent assay kit (Trevigen, Gaithersburg, Md.) as per the manufacturer's instructions.

For data set [4], the system named is BRCA1 transcript. Nature of the data set: Immunoprecipitation of HA-AGO1/miRNA complex, qRT-PCR of bound transcripts, MDA-MB231. Conditions: MDA-MB231, HA-AGO1 IP, normalized to 5S rRNA. The method, then:
miR-182 cDNA and miR-17 cDNA was cloned from HL60 cDNA in pcDNA3.1-Puro expression vector (Invitrogen, Carlsbad, Calif.) using the following primers: […]
MDA-MB231 cells (0.5×10^6 cells) were co-transfected with 1 μg of HA-AGO1 (pIRES-FLAG/HA vector, Addgene) and 0.5 μg of expression vector for miR-182/miR-17 or miR-scr using Lipofectamine 2000. After 2 days cells were harvested using 400 μl lysis buffer (100 mM KCl, 5 mM MgCl2, 10 mM Hepes, pH 7.0, 0.5% Nonidet P-40) containing freshly added RNase inhibitor, RNaseOUT (Invitrogen, Carlsbad, Calif.) and Protease Inhibitor Cocktail (Roche, Basel, Switzerland). After centrifugation, a 50 μl aliquot of supernatant was taken as the input for subsequent RNA extraction. The remaining supernatant was gently shaken with HA-beads (HA-probe Santa Cruz sc-7392) for 4 h at 4° C. in spin columns (Pierce Spin Columns-Screw Cap). The columns were drained, washed and the retained beads were treated with 5 U DNaseI in NT2 buffer (50 mM Tris, pH7.4, 150 mM NaCl, 1 mM MgCl2, 0.05% Nonidet P-40) for 10 minutes at 37° C., washed with NT2 buffer and then treated with Proteinase K in NT2 buffer plus 1% SDS for 30 minutes at 55° C. […] RNA was reverse transcribed (see RNA isolation) and analyzed with qPCR for enrichment of mRNA of miR-182/miR-17 predicted targets.

In data set [5] the test system is BRCA1. Nature of the data set: BRCA1 expression after ectopic miRNA overexpression in HL60 cells (immunoblot, qPCR). Particulars: HL60 cells transiently transfected with expression vectors, Western blot. The method, then: Analysis of the miRNAs of the miR-183 cluster was conducted using qPCR using the TaqMan MicroRNA Assay from Applied Biosystems as per the manufacturer's instructions and normalized to RNU6B snRNA. Analysis of mRNA expression was carried out with qPCR using the SYBR Green master mix (Applied Biosystems, Foster City, Calif.) according to the manufacture's manual and the BioRad iCycler. The mRNA (1 μg) was reverse transcribed with 50 ng random primers using 100 U moloney murine leukemia virus (MMLV) reverse transcriptase (Epicentre, Madison, Wis.) according to the manufacturer's manual. Results were normalized to 5SrRNA or GAPDH.
In each experiment, where Western blot analysis was done, a fraction of 0.2−0.5×10^6 cells was taken out at day, 3 or 4, post-transfection. Breast cancer cell lines were collected from 6 well tissue culture plates (0.5-1×10^6 cells). Cells lysates were prepared in RIPA buffer (150 mM NaCl, 1% NP-40, 0.5% sodium deoxycholate, 0.1% SDS, 50 mM Tris, pH 8.0). Lysates of 0.1×10^6 cells of each sample plus loading buffer were loaded on 8% SDS-PAGE gels, semi-dry transferred on nitrocellulose membrane, and probed with anti-BRCA1 antibody at a 1:500 dilution (CALBIOCHEM, MS110) and anti-tubulin antibody at a 1:10,000 dilution (Sigma, Clone B-5-1-2).
A general note: Immunoblotting shows a protein as a band on a membrane.

We go through four compounds from patent US9642821B2, “MiR-182 in the diagnosis and treatment of cancer” (Dana-Farber Cancer Institute, Inc., priority 2010, dated 2017).

For “12-O-tetradecanoylphorbol-13-acetate [TPA]”, the miR-182 expression entry in data set [1] is “induces expression of miR-182”. Moreover, the cell cycle state result in data set [2] is “leads to a post-mitotic state”.

As to `Nc1ccc2c3c(cccc13)C(=O)NC2=O` [ANI, 4-Amino-1,8-naphthalimide], the PARP activity result was “PARP inhibition was confirmed” in data set [3] and “inhibits PARP activity” in data set [3] (listed as 4-Amino-1,8-naphthalimide).

Turning to “miR-17: another miRNA predicted to target BRCA1; expression vector [reference compound]”, the “association of miRNA/AGO1 complex with BRCA1 transcript” value in data set [4] is given as “did not associate”.

For “miR-183: miRNA of cluster-183, co-expressed with miR-182; expression vector (GUAUGGCACUGGUAGAAUUCACUGU; listed as Homo sapiens) [reference compound]”, the BRCA1 protein level entry in data set [5] is “did not affect”.
